Experimental data reported in patent US8865756B2, “Inhibitors of HCV NS5A” (Presidio Pharmaceuticals, Inc., priority 2008, dated 2014).
pEC50: −log10 of the molar value.

tested on: HCV 1b_Huh-Luc/Neo-ET cell line persistently expressing a bicistronic genotype 1b replicon in Huh 7 cells; assay: HCV replicon assay (luciferase readout); type: cell-based; details: Hepatitis C virus, Huh-7, 72 h, read-out: Inhibition of HCV genotype 1b
Procedure: Biological activity of the compounds of the invention was determined using an HCV replicon assay. The HCV 1b_Huh-Luc/Neo-ET cell line persistently expressing a bicistronic genotype 1b replicon in Huh 7 cells was obtained from ReBLikon GMBH. This cell line was used to test compound inhibition using luciferase enzyme activity readout as a measurement of compound inhibition of replicon levels.
On Day 1 (the day after plating), each compound is added in triplicate to the cells. Plates incubated for 72 h prior to running the luciferase assay. Enzyme activity was measured using a Bright-Glo Kit (cat. number E2620) manufactured by Promega Corporation. The following equation was used to generate a percent control value for each compound. % Control=(Average Compound Value/Average Control)*100
The EC50 value was determined using GraphPad Prism and the following equation: Y=Bottom+(Top−Bottom)/(1+10^((Log IC50−X)*HillSlope))
EC50 values of compounds are determined several times in the replicon assay.
Example compounds of the disclosed invention are illustrated in Tables 1-14 attached as appendices. The tables show inhibitory activity of many of the example compounds with respect to HCV 1b. […] The tables further provide mass spectrometry results for the synthesized example compounds.

Row | Structure (SMILES) | pEC50
1 | COC(=O)N[C@@H](C(=O)N1CCC[C@H]1c1ncc(-c2ccc(C#Cc3ccc(-c4cnc([C@@H]5CCCN5C(=O)[C@H](NC(=O)N5CCC[C@@H]5CO)c5ccccc5)[nH]4)cc3)cc2)[nH]1)c1ccccc1 [Compound 254] | > 9.00
2 | COC(=O)N[C@@H](C(=O)N1CCC[C@H]1c1ncc(C#Cc2ccc(-c3cnc([C@@H]4CCCN4C(=O)[C@H](NC(=O)OC)c4ccccc4)[nH]3)cc2)[nH]1)c1ccccc1 [Compound 110] | > 9.00
3 | CC(C)(C)OC(=O)N[C@@H](C(=O)N1CCC[C@H]1C(=O)Nc1ccc(C#Cc2cnc([C@@H]3CCCN3C(=O)[C@H](NC(=O)OC(C)(C)C)c3ccccc3)[nH]2)cc1)c1ccccc1 [Compound 115] | > 9.00
4 | COC(=O)N[C@@H](C(=O)N1CCC[C@H]1c1ncc(-c2ccc(C#Cc3ccc(-c4cnc([C@@H]5CCCN5C(=O)Nc5ccccc5)[nH]4)cc3)cc2)[nH]1)c1ccccc1 [Compound 196] | 8.00 to 9.00
5 | COC(=O)N[C@@H](C(=O)N1CCC[C@H]1c1ncc(C#Cc2ccc(-c3ccc(-c4cnc([C@@H]5CCCN5C(=O)[C@@H](c5ccccc5)N5CCCC5)[nH]4)cc3)cc2)[nH]1)c1ccccc1 [Compound 759] | > 9.00
6 | COC(=O)N[C@@H](C(=O)N1CCC[C@H]1c1ncc(-c2ccc(C#Cc3ccc(-c4cnc([C@@H]5CCCN5C(=O)[C@H](NC(=O)N5CCCCC5)c5ccccc5)[nH]4)cc3)cc2)[nH]1)c1ccccc1 [Compound 242] | > 9.00
7 | CC(C)[C@H](NC(=O)C1CC1)C(=O)N1CCC[C@H]1c1ncc(-c2ccc(C#Cc3ccc(-c4cnc([C@@H]5CCCN5C(=O)[C@@H](NC(=O)C5CC5)C(C)C)[nH]4)cc3)cc2)[nH]1 [Compound 170] | 8.00 to 9.00
8 | COC(=O)N[C@H](C(=O)N1CCC[C@H]1c1nc2ccc(C#Cc3ccc(-c4cnc([C@@H]5CCCN5C(=O)[C@H](NC(=O)OC)c5ccccc5)[nH]4)cc3)cc2[nH]1)C(C)C [Compound 1022] | > 9.00
9 | COC(=O)N[C@H](C(=O)N1CCC[C@H]1c1ncc(-c2ccc(C#Cc3ccc(-c4cnc([C@@H]5CCCN5C(=O)[C@@H](NC(=O)OC)[C@@H](C)O)[nH]4)cc3)cc2)[nH]1)[C@@H](C)O [Compound 283] | > 9.00
10 | C[C@H](NC(=O)[C@@H]1CCCN1C(=O)[C@H](NC(=O)C1CC1)c1ccccc1)c1ccc(C#Cc2ccc(-c3cnc([C@@H]4CCCN4C(=O)[C@H](NC(=O)C4CC4)c4ccccc4)[nH]3)cc2)cc1 [Compound 191] | > 9.00
11 | CS(=O)(=O)N[C@@H](C(=O)N1CCC[C@H]1c1ncc(-c2ccc(C#Cc3ccc(-c4cnc([C@@H]5CCCN5C(=O)[C@H](NS(C)(=O)=O)c5ccccc5)[nH]4)cc3)cc2)[nH]1)c1ccccc1 [Compound 226] | > 9.00
12 | CN(C)[C@@H](C(=O)N1CCC[C@H]1c1ncc(-c2ccc(C#Cc3ccc(-c4cnc([C@@H]5CCCN5C(=O)[C@H](NS(C)(=O)=O)c5ccccc5)[nH]4)cc3)cc2)[nH]1)c1ccccc1 [Compound 228] | > 9.00
13 | COC(=O)N[C@H](C(=O)N1CCC[C@H]1c1nc2ccc(-c3ccc(C#Cc4cnc([C@@H]5CCCN5C(=O)[C@H](NC(=O)OC)c5ccccc5)[nH]4)cc3)cc2[nH]1)C(C)C [Compound 1085] | > 9.00
14 | COC(=O)N[C@@H](C(=O)N1CCC[C@H]1c1ncc(C#Cc2ccc(C#Cc3cnc([C@@H]4CCCN4C(=O)[C@@H](c4ccccc4)N(C)C)[nH]3)cc2)[nH]1)c1ccccc1 [Compound 314] | > 9.00
15 | COC(=O)N[C@@H](C)C(=O)N1CCC[C@H]1c1ncc(-c2ccc(C#Cc3ccc(-c4cnc([C@@H]5CCCN5C(=O)[C@@H](c5ccccc5)N5CCOC5=O)[nH]4)cc3)cc2)[nH]1 [Compound 1008] | > 9.00
16 | COC(=O)N[C@@H](C(=O)N1CCC[C@H]1c1ncc(-c2ccc(C#Cc3ccc(C(=O)NC[C@@H]4CCCN4C(=O)[C@@H](c4ccccc4)N4CCCCC4)cc3)cc2)[nH]1)c1ccccc1 [Compound 233] | > 9.00
17 | COC(=O)N[C@H](C(=O)N1CCC[C@H]1c1ncc(-c2ccc(C#Cc3ccc(-c4cnc([C@H](C)NC(=O)[C@@H](C(C)C)N(C)C)[nH]4)cc3)cc2)[nH]1)C(C)C [Compound 982] | 6.00 to 8.00
18 | COC(=O)N[C@H](C(=O)N1CCC[C@H]1c1ncc(-c2ccc(C#Cc3ccc(-c4cnc([C@@H]5CCCN5C(=O)[C@@H](NC(=O)OC)[C@@H](C)OC)[nH]4)cc3)cc2)[nH]1)[C@@H](C)OC [Compound 284] | > 9.00
19 | COC(=O)N[C@H](C(=O)N1CCC[C@H]1c1ncc(-c2ccc(C#Cc3ccc4c(c3)CCc3nc([C@@H]5CCCN5C(=O)[C@@H](NC(=O)OC)C(C)C)[nH]c3-4)cc2)[nH]1)C(C)C [Compound 1094] | > 9.00
20 | COC(=O)N[C@@H](C(=O)N1CCC[C@H]1c1ncc(C#Cc2ccc(-c3ccc(-c4cnc([C@@H]5CCCN5C(=O)[C@H](NC(=O)OC(C)(C)C)c5ccccc5)[nH]4)cc3)cc2)[nH]1)c1ccccc1 [Compound 753] | > 9.00

Row | Structure (SMILES) | pEC50
21 | COC(=O)N[C@H](C(=O)N1CCC[C@H]1c1ncc(-c2ccc(C#Cc3ccc4nc([C@@H]5CCCN5C(=O)[C@@H](NC(=O)OC)C(C)C)[nH]c4c3)nc2)[nH]1)C(C)C [Compound 1033] | > 9.00
22 | CN(C)[C@@H](C(=O)N1CCC[C@H]1c1ncc(C#Cc2ccc(-c3cnc([C@@H]4CCCN4C(=O)[C@H](NC(=O)C4CC4)c4ccccc4)[nH]3)cc2)[nH]1)c1ccccc1 [Compound 133] | > 9.00
23 | COC(=O)N[C@@H](C(=O)N1CCC[C@H]1c1ncc(-c2ccc(C#Cc3ccc(-c4cnc([C@@H]5CCCN5C(=O)[C@H](NC(=O)N5CCS(=O)(=O)CC5)c5ccccc5)[nH]4)cc3)cc2)[nH]1)c1ccccc1 [Compound 253] | > 9.00
24 | COC(=O)N[C@H](C(=O)N1CCC[C@H]1c1ncc(-c2ccc(C#Cc3ccc4nc([C@@H]5CCCN5C(=O)[C@@H](NC(=O)OC)C(C)(C)C)[nH]c4c3)cc2)[nH]1)C(C)(C)C [Compound 1041] | > 9.00
25 | CCN(CC)[C@@H](C(=O)N1CCC[C@H]1c1ncc(-c2ccc(C#Cc3ccc(-c4cnc([C@@H]5CCCN5C(=O)[C@@H](NC(=O)OC)C(C)C)[nH]4)cc3)cc2)[nH]1)c1ccccc1 [Compound 985] | > 9.00
26 | O=C(N[C@@H](C(=O)N1CCC[C@H]1C(=O)NCc1ccc(C#Cc2cnc([C@@H]3CCCN3C(=O)[C@H](NC(=O)C3CC3)c3ccccc3)[nH]2)cc1)c1ccccc1)C1CC1 [Compound 121] | > 9.00
27 | COC(=O)N[C@@H](C(=O)N1CCC[C@H]1c1ncc(-c2ccc(C#Cc3ccc(-c4cnc([C@@H]5CCCN5C(=O)[C@@H]5CCCO5)[nH]4)cc3)cc2)[nH]1)c1ccccc1 [Compound 186] | > 9.00
28 | COC(=O)N[C@@H](CC(N)=O)C(=O)N1CCC[C@H]1c1ncc(-c2ccc(C#Cc3ccc4nc([C@@H]5CCCN5C(=O)[C@H](CC(N)=O)NC(=O)OC)[nH]c4c3)cc2)[nH]1 [Compound 1046] | 8.00 to 9.00
29 | C[C@@H]1OC(=O)N[C@H]1C(=O)N1CCC[C@H]1c1ncc(-c2ccc(C#Cc3ccc(-c4cnc([C@@H]5CCCN5C(=O)[C@@H]5NC(=O)O[C@H]5C)[nH]4)cc3)cc2)[nH]1 [Compound 1000] | 6.00 to 8.00
30 | COC(=O)N[C@@H](C(=O)N1CCC[C@H]1c1ncc(-c2ccc(C#Cc3ccc(-c4cnc([C@@H]5CCCN5C(=O)[C@H](NC(=O)OC)C(C)C)[nH]4)cc3)cc2)[nH]1)C(C)C [Compound 292] | < 6.00
31 | O=C(N[C@@H](C(=O)N1CCC[C@H]1c1ncc(C#Cc2ccc(-c3ccc(-c4cnc([C@@H]5CCCN5C(=O)[C@H](NC(=O)N5CC[C@H](O)C5)c5ccccc5)[nH]4)cc3)cc2)[nH]1)c1ccccc1)N1CC[C@H](O)C1 [Compound 762] | > 9.00
32 | COC(=O)NC(C(=O)N1CCC[C@H]1c1ncc(-c2ccc(C#Cc3ccc(-c4cnc([C@@H]5CCCN5C(=O)[C@@H](NC(=O)OC)C(C)C)[nH]4)c(F)c3)cc2)[nH]1)C(C)C (stereo partly drawn) [Compound 1011] | > 9.00
33 | COC(=O)N[C@H](C(=O)N1CSC[C@H]1c1ncc(-c2ccc(C#Cc3ccc4nc([C@@H]5CCCN5C(=O)[C@@H](NC(=O)OC)C(C)C)[nH]c4c3)cc2)[nH]1)C(C)C [Compound 1026] | > 9.00
34 | COC(=O)N[C@H](C(=O)N1CCC[C@H]1c1nc2ccc3cc(C#Cc4ccc(-c5cnc([C@@H]6CCCN6C(=O)[C@H](NC(=O)OC)c6ccccc6)[nH]5)cc4F)ccc3c2[nH]1)C(C)C [Compound 1100] | > 9.00
35 | COC(=O)N[C@@H](C(=O)N1CCC[C@H]1c1ncc(-c2ccc(C#Cc3ccc(-c4cnc([C@@H]5CCCN5C(=O)[C@H](NC(=O)OC)c5ccccc5)[nH]4)c(F)c3)cc2)[nH]1)c1ccccc1 [Compound 1013] | > 9.00
36 | CN(C)[C@@H](C(=O)N1CCC[C@H]1c1ncc(-c2ccc(C#Cc3cnc([C@@H]4CCCN4C(=O)[C@H](NC(=O)C4CC4)c4ccccc4)[nH]3)cc2)[nH]1)c1ccccc1 [Compound 131] | > 9.00
37 | O=C(N[C@@H](C(=O)N1CCC[C@H]1c1ncc(C#Cc2ccc(-c3ccc(-c4cnc([C@@H]5CCCN5C(=O)[C@H](NC(=O)C5CC5)c5ccccc5)[nH]4)cc3)cc2)[nH]1)c1ccccc1)C1CC1 [Compound 760] | > 9.00
38 | COC(=O)N[C@H](C(=O)N1CCC[C@H]1c1nc2ccc(C#Cc3ccc(-c4cnc([C@@H]5CCCN5)[nH]4)cc3)cc2[nH]1)C(C)C [Compound 1055] | 6.00 to 8.00
39 | CC(C)[C@@H](NC(=O)OC(C)(C)C)C(=O)N1CCC[C@H]1C(=O)NCc1ccc(C#Cc2cnc([C@@H]3CCCN3C(=O)[C@H](NC(=O)OC(C)(C)C)C(C)C)[nH]2)cc1 [Compound 120] | 6.00 to 8.00
